Test results published in patent US8778961B2, “O-methylated rapamycin derivatives for alleviation and inhibition of lymphoproliferative disorders” (The Trustees of the University of Pennsylvania, priority 2000, dated 2014).

What was measured:
[1] = toxicity study in BALB/c and SCID mice; type: in vivo; settings: 5 milligrams per kilogram body weight per day
Text: Five- to seven-week-old immunodeficient SCID mice (C.B-17 and ICR) were purchased from Taconic (Germantown, N.J.) and housed at the University of Pennsylvania Animal Facility under pathogen-free conditions in a laminar air flow unit and supplied with sterile food and water. In the toxicity studies, 5-7 week old inbred BALB/c mice (Taconic) were used in addition to the SCID mice.
Mice were sacrificed by exposure to FORANE™ (isoflurane, Ohmeda, Liberty Place, N.J.) on day 29 in the drug toxicity study, on day 40-55 in the tumor growth inhibition study or when tumors achieved approximately 2 centimeter diameter, or when ulceration of the skin, signs of severe respiratory distress, weakness, or lethargy appeared. Complete autopsy was performed on all mice at the end of the study regardless of their appearance. Tumor and internal organs (spleen, liver, lung, heart, kidney, small and large intestines, femoral bone for bone marrow) were fixed in 10% (v/v) formalin, embedded in paraffin, cut into […] sections, transferred to glass slides, and stained with hematoxylin and eosin. Representative tumor fragments were stained immunohistochemically by standard streptavidin-biotin complex technique using commercially available reagents (Research Genetics, Huntsville, Ala.), antibodies: anti-CD20 (L-26) and LMP-1 (both from DAKO, Carpinteria, Calif.) and Ki67 (mib1; Immunotech, Westbrook, Me.). EBV-encoded RNA (EBER-1), and detected using commercially available reagents.
Previous studies have shown that a minimal effective dose of SDZ RAD in rats was 5 milligrams per kilogram body weight per day and >5 milligrams per kilogram body weight per day in the in kidney and heart transplant model, respectively, when SDZ RAD was used as a single immunosuppressive agent (Schuurman et al., 1997, Transplantation 64:32-5; Schuler et al. 1997, Transplantation 64: 36-42). In order to determine if prolonged exposure to SDZ RAD is non-toxic for mice, both immunocompetent and immunodeficient, a cohort of normal BALB/c mice were treated with the above dose of SDZ RAD for 28 days. Ten treated and 5 control, untreated mice were used in this study. Later SCID mice which were transplanted with human PTLD-like lymphomas and treated with SDZ RAD for up to 55 days were evaluated. Seven treated and 5 control untreated SCID mice were evaluated in this experiment. After receiving the final dose of the drug, all mice were sacrificed and the following organs were harvested for histopathologic evaluation to investigate for possible toxic effects: liver, spleen, kidney, small intestine, large intestine, heart, lung, and femoral bone for bone marrow.

[2] = tested on: PTLD-like EBV+ B cell lines; experiment: in vitro cell growth inhibition (3H-thymidine incorporation); type: cell-based, human; settings: for degree of inhibition of growth: 0-10 nanomolar
Text: Most cell lines used in this study were lymphoblastoid B-cell lines obtained by in vitro infection with EBV of peripheral blood mononuclear cells (PBMC). Cell lines A1 and A2D6 were obtained from normal, healthy individuals. Cell lines 15A and 20A were obtained from two different patients with a low grade B-cell lymphoma with monoclonal cold agglutinins (Silberstein et al., 1991, Blood 78:2372-2386). Both lines secreted cold agglutinins with the same specificity as the cold agglutinins found in the patient's serum (Silberstein et al., 1991, Blood 78:2372-2386). […] LCL B-cell line was obtained from a patient with a progressive cutaneous T-cell lymphoproliferative disorder (Zhang et al., 1996, Proc. Natl. Acad. Sci. USA 93:9148-9153). BC-1 is derived from a peritoneal effusion B-cell lymphoma (PEL) and, in addition to EBV, harbors […] virus (Cesarman et al., 1995, Blood 86:2708-2714). The other 3 cell lines used as controls in the in vitro growth inhibition assay were HTLV-I (+) T-cell lines ATL-2 (Maeda et al., 1985, Exp. Med. 162:2169-2174); C10MJ2 (Popovic et al., 1983, Science 219: 856-859); and HUT102B (Poiescz, 1980, Proc. Natl. Acad. Sci. USA 77:7415-7419; Bunn, et al, 1996, J. Cell. Biochem. Suppl 24:12-23) derived from patients with adult T-cell leukemia/lymphoma (ATLL). They were shown by us to be non-responsive to SDZ RAD and the related, immunosuppressive macrolide, rapamycin (Zhang et al., 1999, Leukemia Res. 23:373-384). All cell lines were maintained in humidified incubators at 37° C. in an atmosphere containing 5% CO2 in standard medium: RPMI Medium 1640 (Gibco BRL, Grand Island, N.Y.) supplemented with 10% (v/v) heat inactivated fetal bovine serum (BioWhittaker, Walkersville, Md.), 1% penicillin/streptomycin/fungizone mixture (Gibco BRL), and 2 millimolar L-glutamine (Gibco BRL).
An assay to assess inhibition of in vitro cell growth by SDZ RAD was performed as described (Zhang et al., 1999, Leukemia Res. 23:373-384; Zhang et al., 1996, Proc. Natl. Acad. Sci. USA 93:9148-9153). Briefly, cell lines were cultured for 32 hours in triplicate at 2×10^4 cells per well in the presence of various concentrations of SDZ RAD (Novartis Pharma, Basel). After pulsing the cells with 0.5 microcurie ^3H-thymidine (New England Nuclear, Boston, Mass.) and culturing the cells for the next 18 hours, isotope incorporation into the cells was measured. The results of proliferation assays were expressed as the mean radioactivity of triplicate cultures. Standard deviation within the triplicates was <15%.
In order to determine whether SDZ RAD can inhibit proliferation of cells mimicking PTLDs, 6 different EBV^+ B cell lines were cultured in vitro in the presence of the drug at various concentrations. […]

[3] = BALB/c 28 days, SCID up to 55 days

For CO[C@H]1C[C@@H]2CC[C@@H](C)[C@@](O)(O2)C(=O)C(=O)N2CCCC[C@H]2C(=O)O[C@H]([C@H](C)C[C@@H]2CC[C@@H](OCCO)[C@H](OC)C2)CC(=O)[C@H](C)/C=C(\C)[C@@H](O)[C@@H](OC)C(=O)[C@H](C)C[C@H](C)/C=C/C=C/C=C/1C [SDZ RAD, 40-O-(2-hydroxy)ethyl-rapamycin], the “growth and weight gain vs control group” value [1, 3] was “the same”, the “visible signs of drug toxicity” value [1, 3] was “None of the treated mice” and the “microscopic evaluation of organs” value ([1]; liver, spleen, kidney, intestines, heart, lung, bone marrow) was “no pathologic changes”. The “adverse effect of prolonged exposure” value ([1]; regardless of immune status) was “no adverse effect”, the inhibition of growth ([2]; 1 nanomolar, all EBV+ B cell lines, 32 hours culture then 18 hours 3H-thymidine pulse) was 60-95% and the “sensitivity of cell lines to the drug” value ([2]; all PTLD-like EBV+ B cell lines) was “very sensitive”. For the same compound, the “degree of inhibition of growth” value ([2]; cell lines obtained from normal B cells) was 90-100% and the “degree of inhibition of growth” value ([2]; lines derived from patients with B-cell lymphomas (15A, 20A and BC-1)) was 80-90%.
